In ChEMBL document CHEMBL1150192, “Tetracyclic Triterpenoids of the Fruit Coats of Azadirachta indica” (J Nat Prod, 1991):
Activity calls are given as the source filed them.

Assays:
Type in all cases: functional, organism-based
Staphylococcus = assay: Antimicrobial activity against Staphylococcus citreus
Serratia marcescens = assay: Antimicrobial activity against Serratia marcescens
[1] = tested on: Staphylococcus epidermidis; assay: Antimicrobial activity against Staphylococcus epidermidis
Shigella dysenteriae = assay: Antimicrobial activity against Shigella dysenteriae
Streptococcus pyogenes = assay: Antimicrobial activity against Streptococcus pyogenes
[2] = tested on: Salmonella enterica subsp. enterica serovar Typhi str. CT18; assay: Antimicrobial activity against Salmonella typhi
Klebsiella pneumoniae = assay: Antimicrobial activity against Klebsiella pneumoniae
Bacillus pumilus = assay: Antimicrobial activity against Bacillus pumilus
Salmonella paratyphi = assay: Antimicrobial activity against Salmonella paratyphi A; settings: Salmonella enterica subsp. enterica serovar Paratyphi A
Salmonella = assay: Antimicrobial activity against Salmonella schottmuelleri
Bacillus subtilis = assay: Antimicrobial activity against Bacillus subtilis
Escherichia coli = assay: Antimicrobial activity against Escherichia coli
Shigella sonnei = assay: Antimicrobial activity against Shigella sonnei
Staphylococcus aureus = assay: Antimicrobial activity against Staphylococcus aureus
Proteus vulgaris = assay: Antimicrobial activity against Proteus vulgaris

Measured: Activity

CC(=O)O[C@@H]1C[C@H]2C(C)(C)C(=O)C=C[C@]2(C)[C@H]2CC[C@]3(C)C(=CC[C@H]3[C@@H](CO)C[C@H](O)C(=O)C(C)(C)O)[C@@]21C
inactive: all assays above
